*1 amine or outer side, *2 acyl side, *3 side chain or, on linkers, in order; H or OH if unused. Where a SMILES comes first, the peptide text is derived from it. Bridges are numbered along the chain shown (N, C = ends). Side-chain parts run from the residue outwards. [ ]: non-standard residue; d: D form. The star is where a group is joined. X1 = O=C(COCC(=O)*)NCCOCCOCCOCCOCCOCCNC(=O)CO/N=C/c1ccc(F)cc1; DOTA = O=C(O)CN1CCN(CC(=O)O)CCN(CC(=O)*)CCN(CC(=O)O)CC1; Gly(2R-SCH2CO) = O=C([C@H](N[*:1])SCC(=O)[*:3])[*:2]; X3 = C/C(=N\O)C(C)(C)NCCC(CCNC(C)(C)/C(C)=N/O)CCN*; Gly(αR-SH) = O=C([C@H](N[*:1])S[*:3])[*:2]; Glutaryl = O=C(CCCC(=O)[*:2])[*:1]; X2 = NC(=O)COCC(=O)NCCOCCOCCOCCN*

In ChEMBL document CHEMBL1146155, “NC-100717: a versatile RGD peptide scaffold for angiogenesis imaging” (Bioorg Med Chem Lett, 2006) one finds Ki data, which are given here for five compounds.

The nature of the experiment: Displacement of [125I]echistatin from AlphaVbeta3/AlphaVbeta5 integrin receptor in EAHy 926 cells. The format is cell-based, Homo sapiens. Background: Displacement assays read how much labelled ligand stays bound in the presence of the test substance.
For orientation: Ki means a measure of affinity in units of concentration, obtained from inhibition or displacement. Read a low Ki as a stronger hold on the target. The compound `N=C(N)NCCC[C@@H]1NC(=O)[C@@H]2NC(=O)[C@H](CCCCNC(=O)COCC(=O)NCCOCCOCCOCCOCCOCCNC(=O)CO/N=C/c3ccc(F)cc3)NC(=O)CS[C@H](C(=O)NCCOCCOCCOCCNC(=O)COCC(N)=O)NC(=O)[C@H](Cc3ccccc3)NC(=O)[C@H](NC(=O)[C@H](CC(=O)O)NC(=O)CNC1=O)SS2` (K(X1)[Gly(αR-SH)]RGD[Gly(αR-SH)]F[Gly(2R-SCH2CO)]-X2; disulfide 2-6; lactam N-8) registered a Ki of 8.2 nM.
The same measure for `N=C(N)NCCC[C@@H]1NC(=O)[C@@H]2NC(=O)[C@H](CCCCNC(=O)CN3CCN(CC(=O)O)CCN(CC(=O)O)CCN(CC(=O)O)CC3)NC(=O)CS[C@H](C(=O)NCCOCCOCCOCCNC(=O)COCC(N)=O)NC(=O)[C@H](Cc3ccccc3)NC(=O)[C@H](NC(=O)[C@H](CC(=O)O)NC(=O)CNC1=O)SS2` (K(DOTA)[Gly(αR-SH)]RGD[Gly(αR-SH)]F[Gly(2R-SCH2CO)]-X2; disulfide 2-6; lactam N-8): 3.2 nM; for `CC[N+]1=C(/C=C/C=C/C=C2/N(CCCCCC(=O)NCCCC[C@@H]3NC(=O)CS[C@H](C(=O)NCCOCCOCCOCCNC(=O)COCC(N)=O)NC(=O)[C@H](Cc4ccccc4)NC(=O)[C@@H]4NC(=O)[C@H](CC(=O)O)NC(=O)CNC(=O)[C@H](CCCNC(=N)N)NC(=O)[C@H](NC3=O)SS4)c3ccc4c(S(=O)(=O)O)cc(S(=O)(=O)O)cc4c3C2(C)C)C(C)(C)c2c1ccc1c(S(=O)(=O)[O-])cc(S(=O)(=O)O)cc21`: 0.75 nM; for `C/C(=N\O)C(C)(C)NCCC(CCNC(=O)CCCC(=O)NCCCC[C@@H]1NC(=O)CS[C@H](C(=O)NCCOCCOCCOCCNC(=O)COCC(N)=O)NC(=O)[C@H](Cc2ccccc2)NC(=O)[C@@H]2NC(=O)[C@H](CC(=O)O)NC(=O)CNC(=O)[C@H](CCCNC(=N)N)NC(=O)[C@H](NC1=O)SS2)CCNC(C)(C)/C(C)=N/O` (K([Glutaryl-X3])[Gly(αR-SH)]RGD[Gly(αR-SH)]F[Gly(2R-SCH2CO)]-X2; disulfide 2-6; lactam N-8): 3.1 nM.
The figure for `N=C(N)NCCC[C@@H]1NC(=O)[C@@H]2NC(=O)[C@H](CCCCN)NC(=O)CS[C@H](C(=O)NCCOCCOCCOCCNC(=O)COCC(N)=O)NC(=O)[C@H](Cc3ccccc3)NC(=O)[C@H](NC(=O)[C@H](CC(=O)O)NC(=O)CNC1=O)SS2` (K[Gly(αR-SH)]RGD[Gly(αR-SH)]F[Gly(2R-SCH2CO)]-X2; disulfide 2-6; lactam N-8) is 6.8 nM.
